Measurements reported in PMC5400099, “5-Hydroxyethyl-3-tetradecanoyltetramic acid represents a novel treatment for intravascular catheter infections due to Staphylococcus aureus” (Journal of Antimicrobial Chemotherapy, 2016).
≈ marks a conversion by molar mass, not a printed value. Where “and” joins values, the source holds several entries; their conditions need not be identical. Equal values may be shown once. Read-outs that look alike come from different tables or passages of the source.

Key:
S. aureus [1] = conditions: cited from earlier work
S. aureus biofilms [2] = assay: Biofilm susceptibility, resazurin-conversion assay on plasma-coated wells; assay type: cell-based, Staphylococcus aureus; parameters: Reduction of MRSA biofilm viability: dose or concentration left out as unconfirmed; conditions: for Comparative anti-biofilm activity: MRSA and MSSA biofilms, compared with the other agents evaluated; for Reduction of biofilm viability: 512 and 1024 mg/L, 24 h treatment
Method: Biofilms were formed as previously described to mimic in vivo conditions that promote formation of coagulase-mediated biofilms.[16] Briefly, microtitre plates or glass-bottom culture dishes (MaTek Co., USA) were coated with either 20% (v/v) or 100% (v/v) human plasma, respectively, and inoculated with S. aureus at an OD600 ∼0.2. After 1 h, non-adherent bacteria were aspirated, replaced with fresh RPMI-1640 and biofilms allowed to form over 24 h at 37 °C. Pre-formed biofilms were treated for 24 h with either 5HE-C14-TMA, C14-TOA or C14-TTA or a positive control [ethanol at 40% (v/v)]. Biofilm viability was measured by (i) resazurin-conversion assay (in microtitre wells), or (ii) live/dead imaging (glass-bottom dishes). Conversion of the non-fluorescent redox dye, resazurin into the fluorescent resorufin was performed as described previously.[16] A 44 μM resazurin (Sigma-Aldrich, UK) solution in RPMI-1640 was added to an equal biofilm volume and incubated for 1 h at 37 °C. Fluorescence (excitation 544 nm, emission 590 nm) was quantified using a Perkin Elmer 2030 Multilabel Reader Victor^TM X3. Biofilms were stained with SYTO9 Green (at 13.36 μM) and propidium iodide (at 80 μM) (Molecular Probes®) for 1 h prior to washing. Four representative images at ×40 and ×100 were obtained per experimental group, per experiment using a Zeiss LSM 510 META confocal microscope. Each experiment was repeated at least three times. Fluorescence intensity was quantified using Image J1 software (http://imagej.net/Welcome).

S. aureus strain SH1000 = assay: MIC by broth microdilution (CLSI), strain SH1000; assay type: cell-based; conditions: Staphylococcus aureus; SH1000 (MSSA), Mueller–Hinton broth
Method: (§1) Community-acquired MRSA (CA-MRSA) strain USA300, its isogenic agr mutant,[17] the hospital-acquired MRSA (HA-MRSA) strain BH1CC,[18] the HA-MSSA strain BH48[19] and the MSSA strain SH1000[20] were cultured in Mueller–Hinton broth for susceptibility testing or in RPMI-1640 (Gibco) for biofilm formation. For the rat jugular vein catheter infection model, the S. aureus strain USA300 (LAC) lux[21] was used.
(§2) 5HE-C14-TMA and C14-TOA were synthesized as described previously[9] and C14-TTA as described in the Supplementary data available at JAC Online. Stock solutions of the compounds in DMSO at 10–50 mM were further diluted into tissue culture media or sodium chloride for the in vivo experiments. A DMSO solvent control was used in all in vitro experiments. The following antibiotics were used: vancomycin (Vancocin; Flynn Pharma Ltd., Republic of Ireland), daptomycin (Cubicin; Novartis, UK), gentamicin (Hospira, UK) and tigecycline (Tygacil; Pfizer Inc.). MICs were determined by broth microdilution in Mueller–Hinton broth, as recommended by the CLSI.

Haemolysis assay = assay type: cell-based; conditions: red blood cells; human RBC; read-out: CC50 (haemolytic activity)
Method: Human blood containing EDTA (1.6 g/L) was centrifuged at 1000 g for 5 min. Red blood cells (RBC) were washed twice with PBS, diluted 2-fold and incubated with compounds or Triton X100 (positive control) at 0.5% (v/v). A570 was determined to quantify haemolysis. IC50s were derived from the corresponding dose–response curves.

Iron chelation = assay type: physicochemical; conditions: data not shown
S. aureus strain USA300 = assay: MIC by broth microdilution (CLSI), strain USA300; assay type: cell-based; conditions: Staphylococcus aureus; USA300 (MRSA), Mueller–Hinton broth
Method: as §1, §2

S. aureus strain BH48 = assay: MIC by broth microdilution (CLSI), strain BH48; assay type: cell-based; conditions: Staphylococcus aureus; BH48 (MSSA), Mueller–Hinton broth
Method: as §1, §2

S. aureus USA300 LAC = assay: Bactericidal activity (time-kill, viable counts); assay type: cell-based, Staphylococcus aureus; conditions: 8 × MIC, planktonic USA300
Method: S. aureus USA300 LAC was grown overnight in LB medium, diluted 250-fold and grown to an OD600 0.5. Cells were diluted to 1 × 10^6 per mL in challenge medium (LB plus 5HE-C14-TMA, C14-TOA or C14-TTA at 8 × MIC). Samples were removed and viable counts determined at 30 min intervals for the first hour followed by hourly sampling. The CLSI defines a compound as bactericidal if it reduces the starting inoculum colony count by at least 99.9% (3-logs).

[3] = tested on: S. aureus strain USA300 LAC; assay: Membrane permeabilization: ATP release; assay type: cell-based, Staphylococcus aureus; conditions: 0-100 μM, 1 h
Method: (§3) Membrane permeabilization was evaluated by quantifying (i) ATP release,[22] and (ii) the uptake of propidium iodide.[22]S. aureus strain USA300 LAC was grown overnight in CYGP medium,[9] washed with sodium phosphate buffer (100 mM, pH 7), re-suspended to OD600 0.1 and incubated at 37 °C with a range of concentrations of each compound for 1 h. Nisin (0.6 μM) was used as a positive control. Cell-free supernatants were assayed for ATP using the Cell Titre-Glo kit (Promega). Staphylococcal cells were re-suspended in 100 mM sodium phosphate buffer (pH 7) containing propidium iodide (10 mg/L), incubated in the dark at room temperature for 10 min. After washing, propidium iodide fluorescence (excitation: 575 nm; emission 630 nm) was determined.

[4] = MTT cell viability assay, HaCaT; assay type: cell-based, Human; conditions: human, HaCaT keratinocyte cells; HaCaT, MTT, 24 h
Method: (§4) Human keratinocyte (HaCaT) cells were cultured in DMEM supplemented with 10% (v/v) FBS. Primary human umbilical vein endothelial cells (HUVECs) were cultured in EGM™-2 Bulletkit (Lonza) medium. HaCaT and HUVECs were harvested using TrypLE^TM Express (Gibco). Cells were seeded in microtitre plates at 3 × 10^5 cells/mL and incubated for 24 h at 37 °C with an antimicrobial compound ([…]) or Triton X100 at 1% (v/v). After removing the medium, cells were incubated with 500 mg/L MTT (Sigma-Aldrich) for 4 h. The crystals formed were solubilized with DMSO. Absorbance was recorded at 560 nm and the CC50 was determined.

[5] = tested on: Human keratinocyte (HaCaT) cells; assay: MTT cell viability assay, HaCaT; assay type: cell-based; conditions: HaCaT cells
Method: as §4

S. aureus strain BH1CC = assay: MIC by broth microdilution (CLSI), strain BH1CC; assay type: cell-based; conditions: Staphylococcus aureus; BH1CC (MRSA), Mueller–Hinton broth
Method: as §1, §2

[6] = tested on: S. aureus strain USA300 LAC; assay: Membrane permeabilization: propidium iodide uptake; assay type: cell-based, Staphylococcus aureus; conditions: 0-100 μM, 1 h
Method: as §3

[7] = tested on: MRSA (USA300 JE2 and BH1CC) and MSSA (SH1000 and BH48) strains; assay: MIC by broth microdilution, MRSA and MSSA strains; assay type: cell-based, Staphylococcus aureus; conditions: MRSA and MSSA strains investigated
Method: as §1, §2

S. aureus [8] = tested on: S. aureus; parameters: method as in PMID 24592914; conditions: cited from earlier work; for Effect on frequency and severity of arthritis: murine S. aureus arthritis model
S. aureus biofilms [9] = tested on: S. aureus biofilms; parameters: method as in PMID 19807189; conditions: cited from earlier work
S. aureus [10] = tested on: S. aureus; parameters: method as in PMID 15623555, PMID 19807189; conditions: sub-growth inhibitory concentrations; cited from earlier work
[11] = tested on: agr quorum sensing system; parameters: method as in PMID 24592914; conditions: S. aureus; cited from earlier work
staphylococcal membrane = tested on: staphylococcal membrane; parameters: method as in PMID 24592914; conditions: binding to the staphylococcal membrane, single site model; cited from earlier work
[12] = MTT cell viability assay, HUVEC; assay type: cell-based, human; conditions: human, primary HUVECs (umbilical vein endothelial cells); HUVEC, MTT, 24 h
Method: as §4

[13] = tested on: Primary human umbilical vein endothelial cells (HUVECs); assay: MTT cell viability assay, HUVEC; assay type: cell-based; conditions: HUVECs
Method: as §4

## CCCCCCCCCC(=O)C1C(=O)CNC1=O (centres unmarked) [C10-TMA, reference compound]
S. aureus [1]
  Antibacterial activity after removal of the 5-hydroxyethyl moiety of 5HE-C10-TMA: did not reduce antibacterial activity

## CCCCCCCCCC(=O)N[C@@H](Cc1c[nH]c2ccccc12)C(=O)N[C@H](CC(N)=O)C(=O)N[C@@H](CC(=O)O)C(=O)N[C@@H]1C(=O)NCC(=O)N[C@@H](CCCN)C(=O)N[C@@H](CC(=O)O)C(=O)N[C@H](C)C(=O)N[C@@H](CC(=O)O)C(=O)NCC(=O)N[C@H](CO)C(=O)N[C@@H]([C@H](C)CC(=O)O)C(=O)N[C@@H](CC(=O)c2ccccc2N)C(=O)O[C@@H]1C [daptomycin, reference compound]
S. aureus biofilms [2]
  Comparative anti-biofilm activity: most active antimicrobial evaluated

## CCCCCCCCCCCCCC(=O)C1=C(O)SCC1=O [C14-TTA, 3-tetradecanoylthiotetronic acid]
S. aureus strain SH1000
  MIC: 12.5 µM and 4 µg/mL
Haemolysis assay
  CC50: 470 µM and 153 µg/mL
S. aureus biofilms [2]; resazurin
  Reduction of biofilm viability: 2.5–3 fold
S. aureus biofilms [2]
  Comparative anti-biofilm activity: far less effective
Iron chelation
  Iron chelation: do not chelate iron
S. aureus strain USA300
  MIC: 12.5 µM and 4 µg/mL
S. aureus strain BH48
  MIC: 12.5 µM and 4 µg/mL
S. aureus USA300 LAC
  Bactericidal activity (CLSI: at least 3-log reduction): bactericidal
[3]
  Extracellular ATP levels (ATP release relative to nisin 0.6 μM): least active
[4]
  CC50 at 24 h: 26 µM and 8.3 µg/mL
[5]
  Selectivity index (SI, CC50/MIC): 2
S. aureus strain BH1CC
  MIC: 12.5 µM and 4 µg/mL
[6]
  Propidium iodide fluorescence (uptake relative to nisin 0.6 μM): least active
[7]
  MIC: 4 mg/L (≈ 12.3 µM)
[7]; Staphylococcus aureus
  MIC: 2 to 4 mg/L (≈ 6.13 to 12.3 µM)

## CCCCCCCCCC(=O)CC(=O)N[C@H]1CCOC1=O [3-oxo-C12-HSL, N-(3-oxododecanoyl)-L-homoserine lactone, reference compound]
S. aureus [1]; S. aureus growth
  MIC: 100 μM and 30 mg/L

## CCCCCCCCCC(=O)C1C(=O)NC(CCO)C1=O (centres unmarked) [5HE-C10-TMA, 5-hydroxyethyl-3-decanoyltetramic acid]
S. aureus [8]
  Toxicity in murine arthritis model: neither C14-TOA nor 5HE-C10-TMA were toxic
  Effect on frequency and severity of arthritis: inactive
S. aureus biofilms [9]; at 200 mg/L
  Activity against S. aureus biofilms: inactive
S. aureus biofilms [9]
  Efficacy against S. aureus biofilms: no efficacy
S. aureus [10]
  Selection for resistance on serial passage: did not select for resistance

## CN[C@H](CC(C)C)C(=O)N[C@H]1C(=O)N[C@@H](CC(N)=O)C(=O)N[C@H]2C(=O)N[C@H]3C(=O)N[C@H](C(=O)N[C@H](C(=O)O)c4cc(O)cc(O)c4-c4cc3ccc4O)[C@H](O)c3ccc(c(Cl)c3)Oc3cc2cc(c3O[C@@H]2O[C@H](CO)[C@@H](O)[C@H](O)[C@H]2O[C@H]2C[C@](C)(N)[C@H](O)[C@H](C)O2)Oc2ccc(cc2Cl)[C@H]1O [vancomycin, reference compound]
S. aureus biofilms [2]; MRSA biofilm, resazurin
  Reduction of MRSA biofilm viability: 3.5–4 fold

## CCCCCCCCCCCCCC(=O)C1=C(O)OCC1=O [C14-TOA, 3-tetradecanoyltetronic acid]
[11]
  IC50: 3000 nM
S. aureus strain SH1000
  MIC: 12.5 µM and 4 µg/mL
Haemolysis assay
  CC50: > 2.05 mM and > 667 µg/mL
S. aureus biofilms [2]; resazurin
  Reduction of biofilm viability: 2.5–3 fold
S. aureus biofilms [2]
  Comparative anti-biofilm activity: far less effective
Iron chelation
  Iron chelation: do not chelate iron
Staphylococcal membrane
  Kd: 2000 nM
S. aureus strain USA300
  MIC: 12.5 µM and 4 µg/mL
S. aureus strain BH48
  MIC: 12.5 µM and 4 µg/mL
S. aureus [8]
  Toxicity in murine arthritis model: neither C14-TOA nor 5HE-C10-TMA were toxic
  Effect on frequency and severity of arthritis: significantly reduced the frequency and severity of arthritis and joint destruction
S. aureus [8]; murine S. aureus infection model
  Numbers of viable staphylococci in the kidneys: did not, however, reduce
[4]
  CC50 at 24 h: 257 µM and 80 µg/mL
[5]
  Selectivity index (SI, CC50/MIC): 20
S. aureus strain BH1CC
  MIC: 12.5 µM and 4 µg/mL
[12]
  CC50 at 24 h: 28 µM and 9 µg/mL
[13]
  Selectivity index (SI, CC50/MIC): 2.3
[7]
  MIC: 4 mg/L (≈ 12.9 µM)
[7]; Staphylococcus aureus
  MIC: 2 to 4 mg/L (≈ 6.44 to 12.9 µM)
S. aureus [1]; towards S. aureus
  MIC: 25 µM (≈ 7.76 µg/mL)
